# From paper PMC6175577, “BRCT domains of the DNA damage checkpoint proteins TOPBP1/Rad4 display distinct specificities for phosphopeptide ligands” (eLife, 2018)
# Where a SMILES comes first, the peptide text is derived from it. [ ]: non-standard residue; d: D form. The star is where a group is joined. 5FAM = O=C1OC2(c3ccc(O)cc3Oc3cc(O)ccc32)c2ccc(C(=O)*)cc21; pT = C[C@@H](OP(=O)(O)O)[C@H](N)C(=O)O; pS = N[C@@H](COP(=O)(O)O)C(=O)O
# How the values were obtained:
# TOPBP1-BRCT4,5 = target: T1, TOPBP1-BRCT4,5 (Homo sapiens, UniProt Q92547); assay: Fluorescence polarisation titration, TOPBP1-BRCT4,5; format: binding; conditions: read-out: Kd
# T1 construct: made in house; host or cells: E. coli BL21(DE3)
# T1 sequence (Q92547 549-746 limits assumed): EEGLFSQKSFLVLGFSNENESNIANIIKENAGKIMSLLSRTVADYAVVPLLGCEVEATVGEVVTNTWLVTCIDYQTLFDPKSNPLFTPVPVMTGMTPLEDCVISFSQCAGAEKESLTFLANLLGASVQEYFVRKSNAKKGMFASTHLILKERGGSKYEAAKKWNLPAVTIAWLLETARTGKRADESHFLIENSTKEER
# Description: (§1) Fluorescein-labelled peptides (Peptide Protein Research Ltd, Fareham, UK) at a concentration of 200 nM, were incubated at room temperature with increasing concentrations of recombinant protein in 25 mM HEPES pH 7.5, 150 mM NaCl, 1 mM EDTA, 0.25 mM TCEP, 0.02% (v/v) Tween-20. Four parallel replicates of each titration were dispensed into a black 96-well polypropylene plate (VWR, Lutterworth, UK) for measurement. Fluorescence polarisation was measured in a CLARIOstar multimode microplate reader (BMG Labtech, Aylesbury, UK). Binding curves represent the mean of 4 independent experiments, with error bars indicating one standard deviation. All data were fitted by non-linear regression, to a one site-specific binding model in Prism seven for Mac OS X (v 7.0d, GraphPad Software) in order to calculate the reported dissociation constants (Kd). Low-affinity non-specific responses for which a binding curve could not be determined are marked as ND.
# TOPBP1-BRCT7,8 = target: T2, TOPBP1-BRCT7,8 (Homo sapiens, UniProt Q92547); assay: Fluorescence polarisation titration, TOPBP1-BRCT7,8; format: binding
# T2 construct: made in house; host or cells: E. coli BL21(DE3)
# T2 sequence (Q92547 1264-1493 limits assumed): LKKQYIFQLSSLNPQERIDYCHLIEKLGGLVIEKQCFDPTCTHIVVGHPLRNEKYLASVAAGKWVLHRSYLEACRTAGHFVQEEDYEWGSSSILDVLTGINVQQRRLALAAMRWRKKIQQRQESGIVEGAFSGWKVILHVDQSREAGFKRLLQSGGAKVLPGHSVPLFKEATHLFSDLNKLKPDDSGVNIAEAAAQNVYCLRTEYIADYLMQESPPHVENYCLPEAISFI
# Description: as §1
# Rad4-BRCT1,2 WT = target: T3, Rad4-BRCT1,2 WT (Schizosaccharomyces pombe, UniProt P32372); assay: Fluorescence polarisation titration, Rad4-BRCT1,2 wild-type; conditions: FP, fluorescein-peptide 200 nM, HEPES pH 7.5, room temperature, one-site fit, 4 replicates; ND = low-affinity non-specific response, no binding curve
# T3 construct: made in house; host or cells: E. coli BL21(DE3)
# T3 sequence (P32372 1-186 limits assumed): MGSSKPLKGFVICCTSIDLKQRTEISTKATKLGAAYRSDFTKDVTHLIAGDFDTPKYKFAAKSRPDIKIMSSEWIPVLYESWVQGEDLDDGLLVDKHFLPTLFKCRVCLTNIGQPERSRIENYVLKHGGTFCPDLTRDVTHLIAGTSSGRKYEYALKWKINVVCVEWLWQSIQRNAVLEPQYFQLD
# Description: as §1
# SpNbs1 = target: T4, SpNbs1 (Schizosaccharomyces pombe, UniProt O43070); assay: Fluorescence polarisation titration, SpNbs1; format: binding, S. pombe; conditions: FP, fluorescein-peptide 200 nM, HEPES pH 7.5, room temperature, one-site fit, 4 replicates
# T4 construct: made in house; host or cells: E. coli BL21(DE3)
# T4 sequence (O43070 1-613): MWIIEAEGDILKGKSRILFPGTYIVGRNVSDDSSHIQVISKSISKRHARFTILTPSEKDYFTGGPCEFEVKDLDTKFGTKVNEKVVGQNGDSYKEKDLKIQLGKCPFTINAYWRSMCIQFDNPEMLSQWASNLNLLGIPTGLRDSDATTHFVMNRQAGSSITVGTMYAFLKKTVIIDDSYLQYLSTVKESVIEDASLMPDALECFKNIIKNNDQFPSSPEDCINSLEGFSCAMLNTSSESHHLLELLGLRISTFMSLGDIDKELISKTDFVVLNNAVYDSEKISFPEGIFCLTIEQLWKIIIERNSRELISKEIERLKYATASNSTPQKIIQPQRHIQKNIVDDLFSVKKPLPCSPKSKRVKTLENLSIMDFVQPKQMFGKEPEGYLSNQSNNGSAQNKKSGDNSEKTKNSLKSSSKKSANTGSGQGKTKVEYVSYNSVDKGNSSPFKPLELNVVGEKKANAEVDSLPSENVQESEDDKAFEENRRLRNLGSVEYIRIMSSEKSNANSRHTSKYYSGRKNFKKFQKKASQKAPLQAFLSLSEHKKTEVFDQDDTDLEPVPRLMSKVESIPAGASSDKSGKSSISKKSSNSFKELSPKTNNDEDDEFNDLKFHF
# Description: as §1
# Rad4-BRCT3,4 = target: T5, Rad4-BRCT3,4 (Schizosaccharomyces pombe, UniProt P32372); assay: Fluorescence polarisation titration, Rad4-BRCT3,4; conditions: FP, fluorescein-peptide 200 nM, HEPES pH 7.5, room temperature; ND = low-affinity non-specific response, no binding curve
# T5 construct: made in house; host or cells: E. coli BL21(DE3)
# T5 sequence (P32372 291-494 limits assumed): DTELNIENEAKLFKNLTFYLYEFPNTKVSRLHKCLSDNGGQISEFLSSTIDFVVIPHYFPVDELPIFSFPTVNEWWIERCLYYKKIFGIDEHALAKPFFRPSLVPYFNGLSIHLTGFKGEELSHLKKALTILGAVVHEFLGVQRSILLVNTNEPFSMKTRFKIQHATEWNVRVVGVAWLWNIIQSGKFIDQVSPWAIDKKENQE
# Description: as §1
compound,measurement,setting,value
"CC[C@H](C)[C@H](NC(=O)[C@H](CCC(=O)O)NC(=O)[C@H](CCC(=O)O)NC(=O)[C@@H]1CCCN1C(=O)[C@H](COP(=O)(O)O)NC(=O)[C@@H]1CCCN1C(=O)[C@@H]1CCCN1C(=O)[C@@H](NC(=O)[C@H](Cc1ccccc1)NC(=O)[C@H](CC(=O)O)NC(=O)[C@@H](NC(=O)[C@H](CC(=O)O)NC(=O)CNC(=O)[C@H](Cc1ccc(O)cc1)NC(=O)CNC(=O)c1ccc2c(c1)C(=O)OC21c2ccc(O)cc2Oc2cc(O)ccc21)[C@@H](C)O)C(C)C)C(=O)N[C@H](C(=O)N[C@@H](CO)C(=O)N[C@@H](C)C(=O)O)[C@@H](C)CC [BLM pS304, reference compound] (5FAM-GYGDTDFVPP[pS]PEEIISA-OH)",Kd,"TOPBP1-BRCT4,5",3460 ± 540 nM
"CC[C@H](C)[C@H](NC(=O)[C@H](CO)NC(=O)[C@H](CCC(=O)O)NC(=O)[C@H](CC(=O)O)NC(=O)[C@H](CCC(=O)O)NC(=O)CNC(=O)[C@H](Cc1ccc(O)cc1)NC(=O)CNC(=O)c1ccc2c(c1)C(=O)OC21c2ccc(O)cc2Oc2cc(O)ccc21)C(=O)N[C@@H](Cc1ccc(O)cc1)C(=O)N[C@@H](Cc1ccccc1)C(=O)N[C@H](C(=O)N1CCC[C@H]1C(=O)N[C@@H](CCC(=O)O)C(=O)N[C@@H](CC(C)C)C(=O)N[C@@H](Cc1ccc(O)cc1)C(=O)N[C@@H](CC(=O)O)C(=O)N1CCC[C@H]1C(=O)N[C@@H](CCC(=O)O)C(=O)O)[C@@H](C)OP(=O)(O)O [FANCJ pT1133, reference compound] (5FAM-GYGEDESIYF[pT]PELYDPE-OH)",Kd,"TOPBP1-BRCT7,8",140 ± 10 nM
"CC(C)[C@H](NC(=O)CNC(=O)[C@H](Cc1ccc(O)cc1)NC(=O)CNC(=O)c1ccc2c(c1)C(=O)OC21c2ccc(O)cc2Oc2cc(O)ccc21)C(=O)N[C@@H](CCC(=O)O)C(=O)NCC(=O)N[C@@H](CC(=O)O)C(=O)N[C@@H](Cc1c[nH]cn1)C(=O)N[C@@H](CO)C(=O)N[C@@H](COP(=O)(O)O)C(=O)N[C@@H](CC(=O)O)C(=O)N[C@H](C(=O)N[C@@H](CCC(=O)O)C(=O)N[C@@H](CCC(=O)O)C(=O)N[C@@H](CCC(=O)O)C(=O)N[C@H](C(=O)N[C@H](C(=O)N[C@@H](CO)C(=O)O)C(C)C)C(C)C)[C@@H](C)OP(=O)(O)O [Mdb1 pS216, pT218] (5FAM-GYGVEGDHS[pS]D[pT]EEEVVS-OH)",Kd,"Rad4-BRCT1,2 WT",no binding was observed
same,Kd,SpNbs1,sub-micromolar affinity
same,Kd,"Rad4-BRCT3,4",no binding was observed
